Data published in patent US8119168B2, “Personal care compositions comprising a zinc containing material in an aqueous surfactant composition” (The Procter & Gamble Company, priority 2002, dated 2012).

Assay: Zincon metallochromic dye test for available Zn^2+ (visual color change orange to blue)
Type: physicochemical
Conditions: ZCM ~30 mg/10 ml water, pH 7-11, binary visual assessment
From the text: Zinc-containing materials (ZCMs) differ with respect to how strongly the zinc ion (Zn^2+) is held by counterions in the crystal lattice. The benefits discussed herein depend upon having available Zn^2+. […] The response is a binary visual assessment of whether or not the color changes indicating zinc-binding.
The method is based on the commercial metallochromic dye zincon. Zincon changes from an orange color to blue upon binding zinc and provides the basis for detecting available Zn^2+:
The specific procedure involves making a stock solution of zincon in ethanol (˜50 mg/10 ml ethanol). The ZCM is then added to water (˜30 mg/10 ml water) and agitated (pH range should be 7-11). Three to four drops of zincon solution are then added to the ZCM in water, agitated and a visual assessment of color change made.

Molecule	available Zn^2+ (zincon color change)
O=C([O-])CC(O)(CC(=O)[O-])C(=O)[O-].O=C([O-])CC(O)(CC(=O)[O-])C(=O)[O-].[Zn+2].[Zn+2].[Zn+2] [zinc citrate]	have available zinc
zinc phytate	not having available Zn^2+
zinc stearate	have available zinc
O=S(=O)([O-])[O-].[Zn+2] [zinc sulfate]	have available zinc
zinc hexaborate	have available zinc
O=C([O-])CN(CCN(CC(=O)[O-])CC(=O)[O-])CC(=O)[O-].[Na+].[Na+].[Zn+2] [zinc EDTA]	not having available Zn^2+
CC(=O)[O-].CC(=O)[O-].[Zn+2] [zinc acetate]	have available zinc
CC(O)C(=O)[O-].CC(O)C(=O)[O-].[Zn+2] (stereo not drawn) [zinc lactate]	have available zinc
[OH-].[OH-].[Zn+2] [zinc hydroxide]	have available zinc
OCC(O)CO.[Zn] [zinc monoglycerolate]	have available zinc
[Cl-].[Cl-].[Zn+2] [zinc chloride]	have available zinc
[O]=[Zn] [Zinc Oxide]	have available zinc
zinc histadine	have available zinc
N=C(N)NCCC[C@H](N)C(=O)O.[Zn] [zinc arginine]	have available zinc
O=C([O-])C(=O)[O-].[Zn+2] [zinc oxalate]	have available zinc

Assay: Relative zinc lability by xylenol orange (XO) color change, absorbance at 572 nm
Type: physicochemical
Conditions: 6% sodium lauryl sulfate
Procedure: Zinc lability is a measure of the chemical availability of zinc ion. […] The use of partially soluble forms of zinc salts and/or incorporation in a matrix with potential complexants generally lowers the zinc lability substantially below the defined 100% maximum.
Zinc lability is assessed by combining a diluted zinc-containing solution or dispersion with the metallochromic dye xylenol orange (XO) and measurement of the degree of color change under specified conditions. The magnitude of color formation is proportional to the level of labile zinc. The procedure developed has been optimized for aqueous surfactant formulations but may be adapted to other physical product forms as well.
A spectrophotometer is used to quantify the color change at 572 nm, the wavelength of optimum color change for XO. The spectrophotometer is set to zero absorbance at 572 nm utilizing a product control as close in composition to the test product except excluding the potentially labile form of zinc. The control and test products are then treated identically as follows. A 50 μl product sample is dispensed into a jar and 95 ml of deaerated, distilled water are added and stirred. 5 mL of a 23 mg/mL xylenol orange stock solution at pH 5.0 is pipetted into the sample jar; this is considered time 0. The pH is then adjusted to 5.50±0.01 using dilute HCl or NaOH. After 10.0 minutes, a portion of the sample is filtered (0.45μ) and the absorbance measured at 572 nm. The measured absorbance is then compared to a separately measured control to determine the relative zinc lability (zero TO 100%). The 100% lability control is prepared in a matrix similar to the test products but utilizing a soluble zinc material (such as zinc sulfate) incorporated at an equivalent level on a zinc basis. The absorbance of the 100% lability control is measured as above for the test materials.

Molecule	Relative Zinc Lability (%) Simple Surfactant System Alone
O=C([O-])[O-].O=C([O-])[O-].[OH-].[OH-].[OH-].[OH-].[OH-].[OH-].[Zn+2].[Zn+2].[Zn+2].[Zn+2].[Zn+2] [Hydrozincite]	37.0%
[O]=[Zn] [Zinc Oxide]	1.5%

Same assay, conditions: 6% sodium lauryl sulfate plus sodium bicarbonate at 0.2% level

Molecule	Relative Zinc Lability (%) Simple Surfactant System Plus Sodium Bicarbonate
[O]=[Zn] [Zinc Oxide]	33.2%
